Data: patent publication US9790210B2, “N-(monocyclic aryl),N'-pyrazolyl-urea, thiourea, guanidine and cyanoguanidine compounds as TrkA kinase inhibitors” (Array BioPharma Inc., priority 2012, dated 2017)

Columns and labels:
Experiment in all cases: KinaseProfiler
Assay type in all cases: biochemical
Conditions in all cases: 10 μM, ATP near Km
ROCK-II = target: T1, ROCK-II (Homo sapiens, UniProt O75116)
T1 construct: purchased Millipore, Inc. (KinaseProfiler service)
Experimental: (§1) A representative compound (Example 15) of the invention was tested for off-target kinase activity at a concentration of 10 μM by Millipore, Inc. in their KinaseProfiler™ service against all the kinases available in their full kinase panel. The compound was run in duplicate at a concentration of ATP near the Km for each individual kinase according to Millipore's specifications. The results are shown in Table B. Data are reported as percent of control (POC) and are the average of the two replicates.

MEK1 = target: T2, MEK1 (Homo sapiens, UniProt Q02750)
T2 construct: purchased Millipore, Inc. (KinaseProfiler service)
Experimental: as §1

EphB4 = target: T3, EphB4 (Homo sapiens, UniProt P54760)
T3 construct: purchased Millipore, Inc. (KinaseProfiler service)
Experimental: as §1

AKT3 = target: T4, AKT3 (Homo sapiens, UniProt Q9Y243)
T4 construct: purchased Millipore (KinaseProfiler service)
Experimental: as §1

eEF-2K = target: T5, eEF-2K (Homo sapiens, UniProt O00418)
T5 construct: purchased Millipore, Inc. (KinaseProfiler service)
Experimental: as §1

ALK = target: T6, ALK (Homo sapiens, UniProt Q9UM73)
T6 construct: purchased Millipore (KinaseProfiler service)
Experimental: as §1

PTK6 = target: T7, PTK6 (Homo sapiens, UniProt Q13882)
T7 construct: purchased Millipore, Inc. (KinaseProfiler service)
Experimental: as §1

IR Activated = target: T8, IR Activated (Homo sapiens, UniProt P06213)
T8 construct: purchased Millipore, Inc. (KinaseProfiler service)
Experimental: as §1

KIT = target: T9, KIT (Homo sapiens, UniProt P10721)
T9 construct: purchased Millipore, Inc. (KinaseProfiler service)
Experimental: as §1

SRPK1 = target: T10, SRPK1 (Homo sapiens, UniProt Q96SB4)
T10 construct: purchased Millipore, Inc. (KinaseProfiler service)
Experimental: as §1

FGFR4 = target: T11, FGFR4 (Homo sapiens, UniProt P22455)
T11 construct: purchased Millipore, Inc. (KinaseProfiler service)
Experimental: as §1

KDR = target: T12, KDR (Homo sapiens, UniProt P35968)
T12 construct: purchased Millipore, Inc. (KinaseProfiler service)
Experimental: as §1

PDK1 = target: T13, PDK1 (Homo sapiens, UniProt O15530)
T13 construct: purchased Millipore, Inc. (KinaseProfiler service)
Experimental: as §1

p38beta = target: T14, p38beta (Homo sapiens, UniProt Q15759)
T14 construct: purchased Millipore, Inc. (KinaseProfiler service)
Experimental: as §1

PKCiota = target: T15, PKCiota (Homo sapiens, UniProt P41743)
T15 construct: purchased Millipore, Inc. (KinaseProfiler service)
Experimental: as §1

MKNK2 = target: T16, MKNK2 (Homo sapiens, UniProt Q9HBH9)
T16 construct: purchased Millipore, Inc. (KinaseProfiler service)
Experimental: as §1

SGK2 = target: T17, SGK2 (Homo sapiens, UniProt Q9HBY8)
T17 construct: purchased Millipore, Inc. (KinaseProfiler service)
Experimental: as §1

PKCbetaII = target: T18, PKCbetaII (Homo sapiens, UniProt P05771)
T18 construct: purchased Millipore, Inc. (KinaseProfiler service)
Experimental: as §1

Plk3 = target: T19, Plk3 (Homo sapiens, UniProt Q9H4B4)
T19 construct: purchased Millipore, Inc. (KinaseProfiler service)
Experimental: as §1

DYRK2 = target: T20, DYRK2 (Homo sapiens, UniProt Q92630)
T20 construct: purchased Millipore, Inc. (KinaseProfiler service)
Experimental: as §1

PDGFRalpha = target: T21, PDGFRalpha (Homo sapiens, UniProt P16234)
T21 construct: purchased Millipore, Inc. (KinaseProfiler service)
Experimental: as §1

Lck = target: T22, Lck (Homo sapiens, UniProt P06239)
T22 construct: purchased Millipore, Inc. (KinaseProfiler service)
Experimental: as §1

TAO1 = target: T23, TAO1 (Homo sapiens, UniProt Q7L7X3)
T23 construct: purchased Millipore, Inc. (KinaseProfiler service)
Experimental: as §1

IGF-1R Activated = target: T24, IGF-1R Activated (Homo sapiens, UniProt P08069)
T24 construct: purchased Millipore, Inc. (KinaseProfiler service)
Experimental: as §1

Ret = target: T25, Ret (Homo sapiens, UniProt P07949)
T25 construct: purchased Millipore, Inc. (KinaseProfiler service)
Experimental: as §1

Plk1 = target: T26, Plk1 (Homo sapiens, UniProt P53350)
T26 construct: purchased Millipore, Inc. (KinaseProfiler service)
Experimental: as §1

PKCzeta = target: T27, PKCzeta (Homo sapiens, UniProt Q05513)
T27 construct: purchased Millipore, Inc. (KinaseProfiler service)
Experimental: as §1

IR = target: T28, IR (Homo sapiens, UniProt P06213)
T28 construct: purchased Millipore, Inc. (KinaseProfiler service)
Experimental: as §1

p38alpha = target: T29, p38alpha (Homo sapiens, UniProt Q16539)
T29 construct: purchased Millipore, Inc. (KinaseProfiler service)
Experimental: as §1

MELK = target: T30, MELK (Homo sapiens, UniProt Q14680)
T30 construct: purchased Millipore, Inc. (KinaseProfiler service)
Experimental: as §1

RIPK2 = target: T31, RIPK2 (Homo sapiens, UniProt O43353)
T31 construct: purchased Millipore, Inc. (KinaseProfiler service)
Experimental: as §1

Fms = target: T32, Fms (Homo sapiens, UniProt P07333)
T32 construct: purchased Millipore, Inc. (KinaseProfiler service)
Experimental: as §1

TEC Activated = target: T33, TEC Activated (Homo sapiens, UniProt P42680)
T33 construct: purchased Millipore, Inc. (KinaseProfiler service)
Experimental: as §1

MSK1 = target: T34, MSK1 (Homo sapiens, UniProt O75582)
T34 construct: purchased Millipore, Inc. (KinaseProfiler service)
Experimental: as §1

Txk = target: T35, Txk (Homo sapiens, UniProt P42681)
T35 construct: purchased Millipore, Inc. (KinaseProfiler service)
Experimental: as §1

Pim-2 = target: T36, Pim-2 (Homo sapiens, UniProt Q9P1W9)
T36 construct: purchased Millipore, Inc. (KinaseProfiler service)
Experimental: as §1

STK33 = target: T37, STK33 (Homo sapiens, UniProt Q9BYT3)
T37 construct: purchased Millipore, Inc. (KinaseProfiler service)
Experimental: as §1

EphA8 = target: T38, EphA8 (Homo sapiens, UniProt P29322)
T38 construct: purchased Millipore, Inc. (KinaseProfiler service)
Experimental: as §1

WNK3 = target: T39, WNK3 (Homo sapiens, UniProt Q9BYP7)
T39 construct: purchased Millipore, Inc. (KinaseProfiler service)
Experimental: as §1

Flt1 = target: T40, Flt1 (Homo sapiens, UniProt P17948)
T40 construct: purchased Millipore, Inc. (KinaseProfiler service)
Experimental: as §1

PRK2 = target: T41, PRK2 (Homo sapiens, UniProt Q16513)
T41 construct: purchased Millipore, Inc. (KinaseProfiler service)
Experimental: as §1

T7 sequence (Q13882 whole entry): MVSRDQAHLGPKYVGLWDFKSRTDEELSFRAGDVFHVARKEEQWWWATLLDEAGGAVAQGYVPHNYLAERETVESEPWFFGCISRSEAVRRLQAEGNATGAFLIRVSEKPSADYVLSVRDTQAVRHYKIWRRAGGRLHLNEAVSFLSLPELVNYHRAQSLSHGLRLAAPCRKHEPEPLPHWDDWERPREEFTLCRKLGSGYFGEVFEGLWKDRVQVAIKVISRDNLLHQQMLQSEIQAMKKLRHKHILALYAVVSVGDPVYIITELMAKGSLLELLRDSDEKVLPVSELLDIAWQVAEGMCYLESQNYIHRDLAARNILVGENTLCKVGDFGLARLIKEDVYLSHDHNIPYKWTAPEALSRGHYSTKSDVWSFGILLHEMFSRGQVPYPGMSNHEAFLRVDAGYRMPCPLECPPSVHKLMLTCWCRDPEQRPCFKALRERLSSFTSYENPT
T3 sequence (P54760 16-987): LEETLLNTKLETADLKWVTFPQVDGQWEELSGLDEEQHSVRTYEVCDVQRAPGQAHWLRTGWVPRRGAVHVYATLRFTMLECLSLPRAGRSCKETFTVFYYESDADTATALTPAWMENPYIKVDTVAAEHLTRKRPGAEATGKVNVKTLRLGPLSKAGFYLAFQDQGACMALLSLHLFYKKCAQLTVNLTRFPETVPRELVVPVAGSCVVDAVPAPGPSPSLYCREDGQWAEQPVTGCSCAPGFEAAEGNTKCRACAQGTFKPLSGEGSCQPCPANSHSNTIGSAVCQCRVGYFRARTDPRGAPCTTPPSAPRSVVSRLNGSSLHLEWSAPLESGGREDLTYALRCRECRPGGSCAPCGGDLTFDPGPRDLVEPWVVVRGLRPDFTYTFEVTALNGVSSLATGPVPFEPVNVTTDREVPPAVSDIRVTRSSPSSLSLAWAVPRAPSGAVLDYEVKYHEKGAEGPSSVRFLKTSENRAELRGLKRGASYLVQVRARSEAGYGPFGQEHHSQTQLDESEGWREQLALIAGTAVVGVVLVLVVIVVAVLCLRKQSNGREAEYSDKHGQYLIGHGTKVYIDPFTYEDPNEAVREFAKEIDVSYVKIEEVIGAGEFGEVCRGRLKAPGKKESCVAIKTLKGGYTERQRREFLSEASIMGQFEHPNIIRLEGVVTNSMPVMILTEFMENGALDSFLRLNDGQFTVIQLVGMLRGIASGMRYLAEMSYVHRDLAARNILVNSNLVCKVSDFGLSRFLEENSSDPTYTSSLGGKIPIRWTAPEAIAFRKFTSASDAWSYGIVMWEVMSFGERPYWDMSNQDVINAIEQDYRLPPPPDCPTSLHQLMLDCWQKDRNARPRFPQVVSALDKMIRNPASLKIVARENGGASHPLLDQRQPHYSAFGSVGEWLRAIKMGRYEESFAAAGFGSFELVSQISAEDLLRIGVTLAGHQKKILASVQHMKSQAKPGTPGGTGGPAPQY
T27 sequence (Q05513 whole entry): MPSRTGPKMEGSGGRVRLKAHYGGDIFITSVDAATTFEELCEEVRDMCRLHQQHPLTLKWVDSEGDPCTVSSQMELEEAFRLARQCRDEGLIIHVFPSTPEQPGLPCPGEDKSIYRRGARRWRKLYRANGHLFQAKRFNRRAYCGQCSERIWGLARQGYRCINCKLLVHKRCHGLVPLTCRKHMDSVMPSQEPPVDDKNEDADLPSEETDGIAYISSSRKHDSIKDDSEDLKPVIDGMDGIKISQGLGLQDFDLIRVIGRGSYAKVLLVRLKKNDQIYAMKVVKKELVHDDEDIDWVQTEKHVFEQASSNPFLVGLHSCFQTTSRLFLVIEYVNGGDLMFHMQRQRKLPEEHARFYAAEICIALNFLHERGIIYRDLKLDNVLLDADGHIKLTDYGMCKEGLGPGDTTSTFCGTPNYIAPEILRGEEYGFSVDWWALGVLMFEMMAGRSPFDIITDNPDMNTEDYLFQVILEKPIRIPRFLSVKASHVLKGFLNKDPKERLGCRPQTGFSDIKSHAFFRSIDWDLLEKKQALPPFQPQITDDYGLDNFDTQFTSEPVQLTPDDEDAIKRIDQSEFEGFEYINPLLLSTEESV
T23 sequence (Q7L7X3 whole entry): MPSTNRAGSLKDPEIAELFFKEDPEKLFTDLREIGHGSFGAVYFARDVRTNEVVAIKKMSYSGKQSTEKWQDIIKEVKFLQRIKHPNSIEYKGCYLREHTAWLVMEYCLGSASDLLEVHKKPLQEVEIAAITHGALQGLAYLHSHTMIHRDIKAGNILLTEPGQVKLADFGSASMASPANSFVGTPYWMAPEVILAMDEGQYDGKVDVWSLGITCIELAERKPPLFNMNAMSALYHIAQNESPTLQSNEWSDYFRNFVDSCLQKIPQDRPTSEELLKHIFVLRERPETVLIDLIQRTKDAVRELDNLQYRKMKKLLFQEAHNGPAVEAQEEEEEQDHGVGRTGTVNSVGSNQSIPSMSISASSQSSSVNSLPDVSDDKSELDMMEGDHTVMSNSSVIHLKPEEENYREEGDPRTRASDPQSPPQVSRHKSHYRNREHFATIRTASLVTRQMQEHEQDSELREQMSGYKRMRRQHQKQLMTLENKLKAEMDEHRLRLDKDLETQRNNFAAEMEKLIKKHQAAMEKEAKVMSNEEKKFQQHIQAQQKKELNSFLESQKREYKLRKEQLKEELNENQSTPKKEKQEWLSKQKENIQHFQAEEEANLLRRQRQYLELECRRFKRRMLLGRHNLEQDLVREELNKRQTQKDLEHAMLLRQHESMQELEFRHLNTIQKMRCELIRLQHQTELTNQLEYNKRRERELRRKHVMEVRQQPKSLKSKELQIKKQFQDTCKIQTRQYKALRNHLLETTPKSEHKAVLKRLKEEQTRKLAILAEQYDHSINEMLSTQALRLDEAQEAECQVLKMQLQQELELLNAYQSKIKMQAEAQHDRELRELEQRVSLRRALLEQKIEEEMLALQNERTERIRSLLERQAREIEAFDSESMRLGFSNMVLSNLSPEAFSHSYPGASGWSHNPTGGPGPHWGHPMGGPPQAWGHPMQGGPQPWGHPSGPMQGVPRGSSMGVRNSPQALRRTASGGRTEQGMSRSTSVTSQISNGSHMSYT
T25 sequence (P07949 29-1114): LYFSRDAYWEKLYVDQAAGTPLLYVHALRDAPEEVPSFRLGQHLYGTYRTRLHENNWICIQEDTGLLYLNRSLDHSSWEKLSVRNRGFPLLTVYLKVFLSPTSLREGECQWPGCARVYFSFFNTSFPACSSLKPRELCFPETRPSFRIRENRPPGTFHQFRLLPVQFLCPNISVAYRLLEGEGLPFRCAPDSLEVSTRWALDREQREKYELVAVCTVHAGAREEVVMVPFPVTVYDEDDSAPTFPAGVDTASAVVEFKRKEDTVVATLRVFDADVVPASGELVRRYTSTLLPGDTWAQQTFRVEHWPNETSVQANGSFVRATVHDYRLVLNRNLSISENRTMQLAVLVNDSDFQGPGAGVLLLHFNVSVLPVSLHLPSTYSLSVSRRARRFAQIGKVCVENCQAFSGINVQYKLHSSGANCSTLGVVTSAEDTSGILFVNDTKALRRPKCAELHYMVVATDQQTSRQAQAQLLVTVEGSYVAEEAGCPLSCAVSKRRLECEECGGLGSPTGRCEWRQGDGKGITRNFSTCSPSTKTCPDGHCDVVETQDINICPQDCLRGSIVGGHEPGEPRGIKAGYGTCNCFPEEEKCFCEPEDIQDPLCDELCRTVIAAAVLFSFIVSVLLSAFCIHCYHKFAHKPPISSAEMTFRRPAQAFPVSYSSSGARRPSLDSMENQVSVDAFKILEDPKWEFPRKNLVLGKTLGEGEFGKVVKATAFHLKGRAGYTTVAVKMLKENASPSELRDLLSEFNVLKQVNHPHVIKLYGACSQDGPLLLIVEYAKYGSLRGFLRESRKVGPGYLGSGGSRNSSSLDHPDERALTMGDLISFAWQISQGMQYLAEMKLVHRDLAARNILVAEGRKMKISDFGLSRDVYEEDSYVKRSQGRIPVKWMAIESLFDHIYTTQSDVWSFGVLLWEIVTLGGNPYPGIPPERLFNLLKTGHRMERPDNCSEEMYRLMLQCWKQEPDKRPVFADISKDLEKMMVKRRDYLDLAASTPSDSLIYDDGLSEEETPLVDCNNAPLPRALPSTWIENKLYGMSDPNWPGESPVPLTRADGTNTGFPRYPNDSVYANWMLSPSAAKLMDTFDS
T31 sequence (O43353 whole entry): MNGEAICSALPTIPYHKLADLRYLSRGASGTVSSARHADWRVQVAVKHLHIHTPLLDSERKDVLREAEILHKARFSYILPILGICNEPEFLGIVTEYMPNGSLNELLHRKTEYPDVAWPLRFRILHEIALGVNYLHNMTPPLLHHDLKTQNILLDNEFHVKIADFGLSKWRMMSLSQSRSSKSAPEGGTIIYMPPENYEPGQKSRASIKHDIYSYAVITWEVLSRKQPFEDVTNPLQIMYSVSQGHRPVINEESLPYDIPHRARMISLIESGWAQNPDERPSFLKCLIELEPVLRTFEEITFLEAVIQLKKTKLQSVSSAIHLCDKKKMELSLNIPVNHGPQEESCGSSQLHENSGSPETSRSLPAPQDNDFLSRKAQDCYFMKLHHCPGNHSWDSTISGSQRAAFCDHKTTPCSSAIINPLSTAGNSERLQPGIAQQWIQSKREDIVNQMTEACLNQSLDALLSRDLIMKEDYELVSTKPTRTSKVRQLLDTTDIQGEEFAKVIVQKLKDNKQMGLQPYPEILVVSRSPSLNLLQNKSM
T17 sequence (Q9HBY8 whole entry): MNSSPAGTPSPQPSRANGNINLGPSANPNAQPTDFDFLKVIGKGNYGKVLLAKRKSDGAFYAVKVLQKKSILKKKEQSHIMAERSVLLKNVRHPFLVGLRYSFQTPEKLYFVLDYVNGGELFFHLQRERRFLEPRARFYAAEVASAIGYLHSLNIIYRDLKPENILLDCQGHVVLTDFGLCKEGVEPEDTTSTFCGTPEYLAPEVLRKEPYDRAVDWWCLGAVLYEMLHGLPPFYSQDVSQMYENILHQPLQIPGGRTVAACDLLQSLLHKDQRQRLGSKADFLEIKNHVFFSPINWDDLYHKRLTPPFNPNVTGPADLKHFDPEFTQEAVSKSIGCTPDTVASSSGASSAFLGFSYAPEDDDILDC

- Avg POC (ROCK-II): 99 POC
- Avg POC (MEK1): 121.5 POC
- Avg POC (EphB4): 132.5 POC
- Avg POC (AKT3): 119.5 POC
- Avg POC (eEF-2K): 181 POC
- Avg POC (ALK): 105 POC
- Avg POC (PTK6): 124 POC
- Avg POC (IR Activated): 119.5 POC
- Avg POC (KIT): 99.5 POC
- Avg POC (SRPK1): 112.5 POC
- Avg POC (FGFR4): 120 POC
- Avg POC (KDR): 136 POC
- Avg POC (PDK1): 116.5 POC
- Avg POC (p38beta): 106.5 POC
- Avg POC (PKCiota): 68 POC
- Avg POC (MKNK2): 106 POC
- Avg POC (SGK2): 117.5 POC
- Avg POC (PKCbetaII): 99 POC
- Avg POC (Plk3): 109 POC
- Avg POC (DYRK2): 93.5 POC
- Avg POC (PDGFRalpha): 117.5 POC
- Avg POC (Lck): 94.5 POC
- Avg POC (TAO1): 113 POC
- Avg POC (IGF-1R Activated): 102 POC
- Avg POC (Ret): 91.5 POC
- Avg POC (Plk1): 89.5 POC
- Avg POC (PKCzeta): 103 POC
- Avg POC (IR): 95 POC
- Avg POC (p38alpha): 100.5 POC
- Avg POC (MELK): 142.5 POC
- Avg POC (RIPK2): 102 POC
- Avg POC (Fms): 94 POC
- Avg POC (TEC Activated): 101.5 POC
- Avg POC (MSK1): 132.5 POC
- Avg POC (Txk): 135.5 POC
- Avg POC (Pim-2): 142.5 POC
- Avg POC (STK33): 104.5 POC
- Avg POC (EphA8): 127.5 POC
- Avg POC (WNK3): 108.5 POC
- Avg POC (Flt1): 97.5 POC
- Avg POC (PRK2): 101.5 POC
SMILES: COCCCc1cc(Cl)c(Cl)cc1NC(=O)Nc1c(C)c(-c2cnn(C)c2)nn1-c1ccccc1 [Example 15, 1-(4,5-dichloro-2-(3-methoxypropyl)phenyl)-3-(1′,4-dimethyl-1-phenyl-1H,1′H-[3,4′-bipyrazol]-5-yl)urea]
